The results in this text go back to patent US5786145A, “Oligonucleotide competitors for binding of HIV RRE to REV protein and assays for screening inhibitors of this binding” (Medical Research Council, priority 1995, dated 1998).

One data set relates to rev protein. The data set can be described thus: Saturation filter binding of rev to labelled RNA transcripts. Set-up: species or system HIV-1. The note with it: for Kd: saturation filter binding of T7 transcripts, read-out: Kd for rev binding; for rev binding, result in words: saturation filter binding, 0 to 10 nM rev; for % RNA bound (10 nM rev): Table I, 50 mM KCl. The protocol: Rev protein was expressed and purified as described (33) or further purified by chromatography on Heparin-Sepharose. Rev was applied to Heparin columns in a buffer containing 200 mM NaCl/50mM Tris-HCl pH8.0/1 mM DTT/0.1 mM EDTA 0.1% Triton X-100 and eluted in buffer containing 2M NaCl. After gel filtration on Superose 6 (prep grade) columns equilibrated with 200 mM NaCl/50 mM Tris-HCl pH8.0/1 mM DTT/0.1 mM EDTA, the rev protein appeared homogeneous on SDS-polyacrylamide gels and free of RNA contaminants. Rev concentrations were determined by amino acid analysis of the purified protein.
DNA inserts containing RRE-related sequences were cloned between the EcoRI (5') and HindIII (3') sites of pGEM 1, either by cloning PCR products or by cloning annealed pairs of synthetic oligonucleotides. RNA transcripts for binding experiments were prepared by transcription of HindIII cut plasmids using T7 RNA polymerase and purified by gel electrophoresis. These transcripts carry a 5' extension of 15 nucleotides contributed by the vector and an extra A residue at the 3' end from the HindIII site, as described above.
For filter binding assays, each reaction mixture contained 20 pg of uniformly labelled RNA probe (approximately 500 cpm/pg RNA), […] sonicated salmon sperm DNA, […] yeast tRNA, 40 units RNasin (Promega) in […] TK buffer (43 mM Tris-HCl pH8.0, 50 mM KCl). Incubation was at 4° C. for 15 minutes in the presence of 0 to 10 nM purified rev protein. To measure binding, each reaction mixture was applied under gentle vacuum to a 0.45 um Millipore filter which had been pre-wetted with TK buffer. The filters were washed with […] TK buffer, dried, and radioactivity counted by liquid scintillation.
Filter binding assays contained 20 pg uniformly labelled RNA probe (500 dpm per pg RNA), 1 μg salmon sperm DNA, 0.45 μg yeast tRNA and 40 units RNasin (Promega) in 500 μl buffer containing 43 mM Tris-HCl pH 8.0, 50 mM KCl. Mutations in the purine-rich "bubble" sequence (numbered as shown in FIG. 2) were introduced into the R33 stem-loop structure (FIG. 3d) by site-directed mutagenesis.

The next data set deals with HIV-1 Rev (Human immunodeficiency virus 1, UniProt P04618 P04618:1-116). The data set can be described thus: filter; non-specific binding only. The note with it: tags: none stated, heparin-Sepharose and Superose 6 purified, chain copies: oligomer (tetramer likely; about 4 per RBC6, 6-8 per full-length RRE at 50 mM KCl) stated, label: 32P uniform.
Sequence of HIV-1 Rev (P04618 whole entry, one chain of several): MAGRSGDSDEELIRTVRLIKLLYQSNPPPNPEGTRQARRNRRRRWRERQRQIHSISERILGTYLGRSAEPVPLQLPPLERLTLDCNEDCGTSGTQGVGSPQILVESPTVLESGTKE

The Kd is the free concentration of one partner at which half of the binding sites on the other are occupied at equilibrium, for simple one-to-one binding.

Numbering of substitutions follows the chain as printed. Entries after “also recorded” stand apart in the source; their conditions may differ.

Regarding “R38: stem-loop structure C39 to A56 replaced by the stable loop sequence CUUCGG (GGGAGACCGGAAUUCUGGGCGCUUCGGCGGUACAGA; chemistry not given here)”, the Kd with rev protein fell in the range of 1 to 3 nM. In the case of “R29: residues altered in the apex of the loop to give the anti-sense sequence (GGGAGACCGGAAUUCUGGGCGCAGUGUCAAUGACGCUGACGGUACAGGCA; chemistry not given here)”, in the data set with rev protein, the “rev binding, result in words” value is given as “normal rev binding activity”. As to “R36 (GGGAGACCGGAAUUCUGGGCGCAGUGUCAUUGACGCUGCGCAGAAUUCCGGCA; chemistry not given here)”, in the data set with rev protein, the “% RNA bound (10 nM rev)” value is reported as 4% and the “rev binding, result in words” value was “loss of rev binding”. Take “R22: residue A56 is deleted from R20 (GGGAGACCGGAAUUCUGGGCGCAGUGUCAUUGACGCUGCGGUACAGGCA; chemistry not given here)”: in the data set with rev protein, the Kd is 1 to 3 nM. With “R30: base pairing in the upper stem structure altered to give the anti-sense sequence (GGGAGACCGGAAUUCUGGGCGCAGCGUCAUUGACACUGCGGUACAGGCA; chemistry not given here)”, in the data set with rev protein, the “rev binding, result in words” value is listed as “normal rev binding activity”. Consider “R19: transcript containing RRE sequences 33 to 66 (GGGAGACCGGAAUUCUGGGCGCAGUGUCAUUGACGCUGACGGUACAGGCA; unmodified RNA)”, for which the Kd in the data set on rev protein is 1 to 3 nM.

As for “R37 (GGGAGACCGGAAUUCUAAACGCAGUGUCAUUGACGCUGCGGUAUAGAAUUCCGGCA; chemistry not given here)”, in the data set with rev protein, the “% RNA bound (10 nM rev)” value worked out at 5% and the “rev binding, result in words” value is reported as “abolished specific rev binding”.

B1: R58 (ssRNA)
RNA: GGGAGACCGGAAUUCUGGGCGCAGUGUCAUUGACGCUGCGAUACAGAAUUCCGGCA
modifications: [none]
With B1, the binding signal in the data set with HIV-1 Rev came to 6 % RNA bound at 10 nM rev.

B2: R53 (ssRNA)
RNA: B1 RNA with A41G, A43G
modifications: [none]
For B2, in the data set with HIV-1 Rev, the binding signal came to 5 % RNA bound at 10 nM rev.

B3: 26-72: RRE fragment 26-72 T7 transcript (nucleic acid)
chain: GGGAGACCGGAAUUCAGCACUAGGGCGCAGUGUCAUUGACGCUGAGGGUACAGGCCAGACAAUUAUA
modifications: unmodified RNA
notes: RRE fragment 26-72 T7 transcript
B3: the “rev binding, result in words” value with rev protein is on record as “does not bind rev”.

B4: R36 (dG59-A61) (ssRNA)
RNA: GGGAGACCGGAAUUCUGGGCGCAGUGUCAUUGACGCUGCGCAGAAUUCCGGCA
Take B4: in the data set with HIV-1 Rev (stem-loop with G,G bulge), the binding signal was 4 % RNA bound at 10 nM rev.

B5: 26-92: RRE fragment 26-92 T7 transcript (nucleic acid)
chain: GGGAGACCGGAAUUCAGCACUAUGGGCGCAGUGUCAUUGACGCUGACGGUACAGGCCAGACAAUUAUUGUCUGGUAUAGUGCA
modifications: unmodified RNA
notes: RRE fragment 26-92 T7 transcript
Turning to B5, the “rev binding, result in words” value in the data set on rev protein is recorded as “same affinity as the full-length RRE sequence; also recorded: Identical binding behaviour”.

B6: 1-96: RRE fragment 1-96 T7 transcript (nucleic acid)
chain: GGGAGACCGGAAUUCCCUUGGGUUCUUGGGAGCAGCAGGAAGCACUAUGGGCGCAGUGUCAUUGACGCUGACGGUACAGGCCAGACAAUUAUUGUCUGGUAUAGUGCAACA
modifications: unmodified RNA
notes: RRE fragment 1-96 T7 transcript
On to B6, for which the “rev binding, result in words” value in the data set on rev protein was “same affinity as the full-length RRE sequence”.

B7: R49 (ssRNA)
RNA: GGGAGACCGGAAUUCUGGGCGCAGUGUCAUUGACGCUGCGUACAGAAUUCCGGCA
modifications: [none]
The molecule B7 showed a binding signal with HIV-1 Rev of 2 % RNA bound at 10 nM rev.

B8: R45 (ssRNA)
RNA: B7 RNA with U41G
modifications: [none]
Turning to B8, the binding signal with HIV-1 Rev came out at 6 % RNA bound at 10 nM rev.

B9: R46 (ssRNA)
RNA: B7 RNA with U41G, A42U
modifications: [none]
For B9, the binding signal with HIV-1 Rev was determined as 1 % RNA bound at 10 nM rev.
